Literature values as cited in patent publication US20100021879A1, “COMPOSITIONS AND METHODS FOR PRESERVING RED BLOOD CELLS” (THE REGENTS OF THE UNIVERSITY OF MICHIGAN, priority 2007, published 2010).

Key:
erythrocyte = conditions: prior to hemolysis

SMILES	K leak (erythrocyte)	erythrocyte deformability evidenced by ektacytometry (erythrocyte)	red blood cell deformability (red blood cells)
OCl [hypochlorous acid]	increase in K leak	changes in erythrocyte deformability	–
CC[N+](CC)(CC)CC [TEA]	–	–	increased deformability
